According to patent publication US20210214607A1, “LONG WAVELENGTH EMITTING CHEMILUMINESCENT PROBES” (NEMIS Technologies AG, priority 2018, published 2021):

What was measured:
[1] = Chemiluminescent emission spectrum in PBS; assay type: physicochemical; settings: compound 100 μM, PBS (pH 7.4) (10% DMSO)
Method: (§1) All reactions were carried out at room temperature unless stated otherwise. Chemicals and solvents were either A.R. grade or purified by standard techniques. Thin layer chromatography (TLC): silica gel plates Merck 60 F254: compounds were visualized by irradiation with UV light. Column chromatography (FC): silica gel Merck 60 (particle size 0.040-0.063 mm), eluent given in parentheses. Reverse-phase high pressure liquid chromatography (RP-HPLC): C18 5u, 250×4.6 mm, eluent given in parentheses. Preparative RP-HPLC: C18 5u, 250×21 mm, eluent given in parentheses. Fluorescence and chemiluminescence were recorded on Molecular Devices Spectramax i3x.

[2] = Chemiluminescence upon reaction with H2O2 in PBS; assay type: physicochemical; settings: compound 100 μM, H2O2 1 mM, PBS (pH 7.4) (10% DMSO)
Method: as §1
The respective chemiluminescent kinetic profile is shown in FIG. 1 and the total light emission with [1 mM] or without the presence of H2O2 is shown in FIG. 2.
The chemiluminescent kinetic profile is shown in FIG. 5 and the total light emission with and without the presence of H2O2 is shown in FIG. 6.

## COC1(c2ccc(/C=C/c3cc[n+]([O-])cc3)c(O)c2Cl)OOC12C1CC3CC(C1)CC2C3 (stereo not drawn) [Ia2]
[1]
  intensity of emission: visible by the naked eye

## COC1(c2ccc(/C=C/c3cccc[n+]3CCCCCC(=O)O)c(OCc3ccc(B4OC(C)(C)C(C)(C)O4)cc3)c2Cl)OOC12C1CC3CC(C1)CC2C3 (stereo not drawn) [Ia3]
[2]; 26° C.
  emission maximum: 650 nm

## COC1(c2ccc(/C=C/c3cc[n+](CCCCCC(=O)O)cc3)c(OCc3ccc(B4OC(C)(C)C(C)(C)O4)cc3)c2Cl)OOC12C1CC3CC(C1)CC2C3 (stereo not drawn) [Ia1]
[2]; 37° C.
  emission maximum: 660 nm
